Results taken from US20250288588A1, “SUBSTITUTED IMIDAZOPYRIDINES AND IMIDAZOPYRIMIDINES, AND USE OF SAME FOR TREATING, AMELIORATING, AND/OR PREVENTING RETINAL DEGENERATION” (Yale University, priority 2022, published 2025).

Tests used:
Assay type in all cases: cell-based
Human ARPE-19 cells [1] = experiment: Cell viability on nitrite-modified extracellular matrix (ECM); settings: FIG. 5, 1 μM, 3 μM, and 10 μM compound, seeded onto nitrite-modified ECM for 24 hours
Method: Immortalized human RPE (ARPE-19) cells were obtained from the ATCC, cultured, and maintained in DMEM (Invitrogen-Gibco, Life Technologies) containing 10% FBS, 100 IU/mL penicillin, 100 μg/mL streptomycin, and 100 μg/mL gentamicin (Invitrogen-Gibco, Life Technologies). These cells were incubated in a humidified atmosphere of 5% CO2 and 95% air at 37° C. ARPE-19 cells were grown on 24-well Transwell® permeable supports (Corning, Inc.) in 12-well plates or flat bottom 24-well plates for 6-8 weeks to allow the ECM to form. ARPE-19 cells were then removed by the addition of 20 mM ammonium hydroxide buffer for 20 min, and the ECM was washed with phosphate buffered saline (PBS). PBS was removed from the RPE-ECM plates and dried. Subsequently, 100 mM sodium nitrite was added to the ECM and incubated at 37° C. for 7 days. Plates were then washed with PBS and incubated with PBS for 4 hours. Finally, plates were washed with PBS to completely remove the nitrite. Cells are preincubated with drug for 24 hours and then seeded on nitrite-modified ECM for 24 hours. Cell viability was measured using RealTime-Glo MT assays (Promega) with a BioTek FLx800 fluorescence reader (Bio Tek, Winooski, VT). […]

Human RPE cells [2] = experiment: as above; settings: FIG. 8, 1 μM compound, seeded onto nitrite-modified ECM for 24 hours, p<0.05
Method: Human RPE cells were treated with 1 μM of compound DH421 or DH381-2 and then seeded onto nitrite-modified ECM and untreated (normal) ECM for 24 hours. Protective effects of compound DH421 or DH381-2 on RPE cells seeded onto nitrite-modified ECM. *p<0.05.

Human RPE cells [3] = experiment: Blue light damage, cell viability; settings: FIG. 7, 0.6 μM compound preincubated 24 hours, then blue light 156.7 LUX for 36 hours
Method: Human RPE cells were preincubated with 0.6 μM of compound DH421 or DH381-2 for 24 hours and then exposed to blue light (156.7 LUX for 36 hours). Protective effect of compound DH421 or DH381-2 on human RPE cells exposed to blue light (156.7 LUX for 36 hours). * p<0.05, *** p<0.01.

Human RPE cells [4] = experiment: CellTox Green Cytotoxicity Assay; settings: FIG. 10, 1 μM compound preincubated 24 hours
Method: Human RPE cells were preincubated with 1 μM of compound DH381-2 and DH421 for 24 hours. Cell toxicity was measured by CellTox Green Cytotoxicity Assay in human RPE cells after treatment with TBHP and compounds DH381-2 and DH421.

Human RPE cells [5] = experiment: Mitochondrial function after TBHP (oxygen consumption rate, Seahorse XF analyzer); settings: FIGS. 9A-9B, 1 μM compound preincubated 18 hours, then 300 μM TBHP 24 hours; for ATP production compared to TBHP-treated group: p<0.001
Method: Human RPE cells were preincubated with 1 μM of compound DH381-2 and DH421 for 18 hours and then treated with 300 μM tert-butyl hydroperoxide (TBHP) for 24 hours. Oxygen consumption rate (OCR) was determined by Seahorse XF analyzer to measure mitochondrial function.

Human ARPE-19 cells [6] = experiment: TBHP oxidative stress-induced cell death, cell viability (RealTime-Glo MT); settings: for cell viability after exposure to TBHP / protection from oxidative stress-induced cell death: p<0.0001; for protection from oxidative stress-induced cell death: FIG. 3, 0.6 μM compound preincubated 24 hours
Method: Immortalized human RPE cells (ARPE-19) obtained from the American Type Culture Collection (ATCC, Manassas, VA, USA) were cultured in Dulbecco's modified Eagle's medium (DMEM; Thermo Fisher Scientific, Waltham, MA) containing 10% fetal bovine serum (FBS), 100 IU/mL penicillin, 100 μg/mL streptomycin, 100 μg/mL gentamicin, and 2.5 μg/mL amphotericin B (Thermo Fisher Scientific).
Human ARPE-19 cells were plated in 96-well plates for 24 hours in DMEM supplemented with FBS and antibiotics. ARPE-19 cells were preincubated with either ciclopirox olamine (Sigma), compound 414 (Chemical Diversity, San Diego, CA), compound 434 (Chemical Diversity) or no compound for 24 hours and then exposed to varying concentrations of tert-butyl hydroperoxide (TBHP; Sigma-Aldrich, St. Louis, MO) the next day for 24 hours. Cell viability was measured the following day by RealTime-Glo™ MT cell viability assay (Promega, Madison, WI) using a BioTek FLx800™ fluorescence reader (BioTek, Winooski, VT).
Human ARPE-19 cells (CRL-2302; American Type Culture Collection) were preincubated with 0.9 μM of DH381-2 and DH421 for 24 hours and then exposed to 300 μM tert-butyl hydroperoxide (TBHP) to induce cell death for 24 hours.
Human ARPE-19 cells (CRL-2302; American Type Culture Collection) were preincubated with 0.9 μM of DH421 for 24 hours and then exposed to 250 μM tert-butyl hydroperoxide (TBHP) to induce cell death for 24 hours.
Human ARPE-19 cells (CRL-2302; American Type Culture Collection) with preincubated with 0.6 μM of compound DH421 or DH381-2 for 24 hours and then exposed to 300 μM tert-butyl hydroperoxide (TBHP) to induce cell death for 24 hours. Protective effects on human ARPE-19 cells treated with DH421 and DH381-2. **** p<0.0001.

Human ARPE-19 cells [7] = experiment: Blue light damage, cell viability (RealTime-Glo MT); settings: FIG. 4, 0.6 μM compound preincubated 24 hours, then blue light 156.7 LUX for 36 hours
Method: Human ARPE-19 cells were plated in 96-well plates for 24 hours in DMEM supplemented with FBS and antibiotics. The cells were preincubated with drug for 24 hours and then exposed to blue light (156.7 LUX for 36 hours). Cell viability was measured after 36 hours of blue light exposure using RealTime-Glo MT assays (Promega) with a BioTek FLx800 fluorescence reader (Bio Tek, Winooski, VT).
Human ARPE-19 cells (CRL-2302; American Type Culture Collection) were preincubated with 0.6 μM of compound DH421 or DH381-2 for 24 hours and then exposed to blue light (156.7 LUX for 36 hours). Protective effect of compound DH421 or DH381-2 on human ARPE-19 cells exposed to blue light (156.7 LUX for 36 hours). * p<0.05, *** p<0.01.

Human RPE cells [8] = experiment: TBHP oxidative stress-induced cell death, cell viability; settings: FIG. 6, 0.6 μM compound preincubated 24 hours, then 300 μM TBHP 24 hours, p<0.0001
Method: Human RPE cells were preincubated with 0.6 μM of compound DH421 or DH381-2 for 24 hours and then exposed to 300 μM tert-butyl hydroperoxide (TBHP) to induce cell death for 24 hours. Protective effects on human RPE cells treated with DH421 and DH381-2. **** p<0.0001.

[9] = FIG. 1, 0.9 μM compound preincubated 24 hours, then 300 μM TBHP 24 hours

SMILES | cell viability on nitrite-modified ECM (Human ARPE-19 cells [1]) | cell viability on nitrite-modified ECM (Human RPE cells [2]) | protection from blue light damage (Human RPE cells [3]) | cytotoxicity level (Human RPE cells [4]) | mitochondrial function (oxygen consumption rate) after oxidative stress (Human RPE cells [5]) | ATP production compared to TBHP-treated group (Human RPE cells [5]) | cell viability after exposure to TBHP (Human ARPE-19 cells [6]; [9]) | effect on cell growth suppression (Human ARPE-19 cells [6]; FIG. 2, 0.9 μM compound) | cell viability after exposure to TBHP (Human ARPE-19 cells [6]; FIG. 2, 0.9 μM compound preincubated 24 hours, then 250 μM TBHP 24 hours) | protection from oxidative stress-induced cell death (Human ARPE-19 cells [6]; then 300 μM TBHP 24 hours) | protection from blue light damage (Human ARPE-19 cells [7]) | protection from oxidative stress-induced cell death (Human RPE cells [8])
CCc1cccc(C)c1Nc1c(-c2cc(Br)ccc2O)nc2ccccn12 [DH421, 4-bromo-2-(3-((2-ethyl-6-methylphenyl)amino)imidazo[1,2-a]pyridin-2-yl)phenol] | enhanced | enhanced | protected | not affected | improved mitochondrial function | increased ATP production | significantly increased cell viability | no effect on cell growth suppression | significantly increased cell viability | protected | protected | protected
Oc1ccc(Br)cc1-c1nc2ncccn2c1Nc1ccccn1 [DH381-2, 4-bromo-2-(3-(pyridin-2-ylamino)imidazo[1,2-a]pyrimidin-2-yl)phenol] | enhanced | enhanced | protected | not affected | improved mitochondrial function | increased ATP production | significantly increased cell viability |  |  | protected | protected | protected
